Reference: ChEMBL document CHEMBL1201862, “PubChem BioAssay data set” (2004)
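In this assay, cells in 96-well plates receive the compound at five concentrations for 48 hours. Endpoints are linearly interpolated between the surrounding concentrations. GI50 is the concentration that inhibits growth by half.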 The source made the active and inactive calls. Cut-off read from the data, not from the text of the source: active = GI50 up to about 1.1 µM and inactive = higher.

Experiments:
Assay in all cases: DTP human tumour cell line panel, 48 h
[1] = tested on: 786-0
[2] = tested on: HL-60
[3] = tested on: OVCAR-3
[4] = tested on: M14
[5] = tested on: OVCAR-8
[6] = tested on: MOLT-4
[7] = tested on: SF-268
[8] = tested on: CCRF-CEM
[9] = tested on: SF-295
[10] = tested on: SW-620
[11] = tested on: LOX IMVI
[12] = tested on: UO-31
[13] = tested on: SK-MEL-2
[14] = tested on: SK-MEL-5
[15] = tested on: TK-10
[16] = tested on: LXFL 529
[17] = tested on: HCC 2998
[18] = tested on: RXF 393
[19] = tested on: SNB-19
[20] = tested on: HT-29
[21] = tested on: HOP-92
[22] = tested on: SR
[23] = tested on: CAKI-1
[24] = tested on: XF498
[25] = tested on: RPMI-8226
[26] = tested on: NCI-H460
[27] = tested on: SK-MEL-28
[28] = tested on: IGROV-1
[29] = tested on: KM12
[30] = tested on: SK-OV-3
[31] = tested on: SNB-78
[32] = tested on: NCI-H23
[33] = tested on: HOP-18
[34] = tested on: Malme-3M
[35] = tested on: A549
[36] = tested on: HOP-62
[37] = tested on: SN12C
[38] = tested on: K562
[39] = tested on: UACC-257
[40] = tested on: SF-539
[41] = tested on: UACC-62
[42] = tested on: U-251
[43] = tested on: DLD-1
[44] = tested on: OVCAR-4
[45] = tested on: EKVX
[46] = tested on: HCT-116
[47] = tested on: HCT-15
[48] = tested on: NCI-H522
[49] = tested on: ACHN
[50] = tested on: RXF 631
[51] = tested on: OVCAR-5
[52] = tested on: A498
[53] = tested on: DMS-114
[54] = tested on: KM-20L2
[55] = tested on: SNB-75
[56] = tested on: NCI-H226
[57] = tested on: COLO 205
[58] = tested on: DMS-273
[59] = tested on: M19-MEL

## CCCCCCCCCCCCCCCc1nnc(SCC(=O)O)[nH]1
[1]
  GI50: 18.5 µM (inactive)
[2]
  GI50: 34.8 µM (inactive)
[3]
  GI50: > 100 µM (inactive)
[4]
  GI50: 19.3 µM (inactive)
[5]
  GI50: 40.8 µM (inactive)
[6]
  GI50: 11.7 µM (inactive)
[7]
  GI50: 42 µM (inactive)
[8]
  GI50: 24.2 µM (inactive)
[9]
  GI50: 40 µM (inactive)
[10]
  GI50: 95.5 µM (inactive)
[11]
  GI50: 33.4 µM (inactive)
[12]
  GI50: 49.9 µM (inactive)
[13]
  GI50: 37.9 µM (inactive)
[14]
  GI50: > 100 µM (inactive)
[15]
  GI50: 13.2 µM (inactive)
[16]
  GI50: 22.8 µM (inactive)
[17]
  GI50: 43.9 µM (inactive)
[18]
  GI50: > 100 µM (inactive)
[19]
  GI50: 49.7 µM (inactive)
[20]
  GI50: 31.7 µM (inactive)
[21]
  GI50: 32.1 µM (inactive)
[22]
  GI50: 60 µM (inactive)
[23]
  GI50: 63.2 µM (inactive)
[24]
  GI50: 65.8 µM (inactive)
[25]
  GI50: 78.2 µM (inactive)
[26]
  GI50: > 100 µM (inactive)
[27]
  GI50: 80.7 µM (inactive)
[28]
  GI50: 36.1 µM (inactive)
[29]
  GI50: 48.3 µM (inactive)
[30]
  GI50: 45.4 µM (inactive)
[31]
  GI50: > 100 µM (inactive)
[32]
  GI50: > 100 µM (inactive)
[33]
  GI50: > 100 µM (inactive)
[34]
  GI50: > 100 µM (inactive)
[35]
  GI50: 79.1 µM (inactive)
[36]
  GI50: > 100 µM (inactive)
[37]
  GI50: 71.9 µM (inactive)
[38]
  GI50: 16.4 µM (inactive)
[39]
  GI50: > 100 µM (inactive)
[40]
  GI50: 48 µM (inactive)
[41]
  GI50: 42.2 µM (inactive)
[42]
  GI50: 26.4 µM (inactive)
[43]
  GI50: 23.4 µM (inactive)
[44]
  GI50: 45.7 µM (inactive)
[45]
  GI50: > 100 µM (inactive)
[46]
  GI50: 92.7 µM (inactive)
[47]
  GI50: 31.6 µM
[48]
  GI50: 41.6 µM (inactive)
[49]
  GI50: 47.3 µM (inactive)
[50]
  GI50: 19.6 µM (inactive)

## O=c1cc(O)cc2n1CCC2
[1]
  GI50: > 100 µM (inactive)
[51]
  GI50: > 100 µM (inactive)
[3]
  GI50: > 100 µM (inactive)
[4]
  GI50: > 100 µM (inactive)
[5]
  GI50: > 100 µM (inactive)
[6]
  GI50: > 100 µM (inactive)
[7]
  GI50: > 100 µM (inactive)
[8]
  GI50: > 100 µM (inactive)
[9]
  GI50: > 100 µM (inactive)
[10]
  GI50: > 100 µM (inactive)
[11]
  GI50: > 100 µM (inactive)
[12]
  GI50: > 100 µM (inactive)
[13]
  GI50: > 100 µM (inactive)
[14]
  GI50: > 100 µM (inactive)
[15]
  GI50: > 100 µM (inactive)
[52]
  GI50: > 100 µM (inactive)
[16]
  GI50: > 100 µM (inactive)
[17]
  GI50: > 100 µM (inactive)
[18]
  GI50: > 100 µM (inactive)
[19]
  GI50: > 100 µM (inactive)
[20]
  GI50: > 100 µM (inactive)
[53]
  GI50: > 100 µM (inactive)
[23]
  GI50: > 100 µM (inactive)
[54]
  GI50: > 100 µM (inactive)
[24]
  GI50: > 100 µM (inactive)
[25]
  GI50: > 100 µM (inactive)
[26]
  GI50: > 100 µM (inactive)
[28]
  GI50: > 100 µM (inactive)
[29]
  GI50: > 100 µM (inactive)
[30]
  GI50: > 100 µM (inactive)
[55]
  GI50: > 100 µM (inactive)
[31]
  GI50: > 100 µM (inactive)
[56]
  GI50: > 100 µM (inactive)
[57]
  GI50: > 100 µM (inactive)
[34]
  GI50: > 100 µM (inactive)
[35]
  GI50: > 100 µM (inactive)
[36]
  GI50: > 100 µM (inactive)
[37]
  GI50: > 100 µM (inactive)
[38]
  GI50: > 100 µM (inactive)
[39]
  GI50: > 100 µM (inactive)
[40]
  GI50: > 100 µM (inactive)
[41]
  GI50: > 100 µM (inactive)
[58]
  GI50: > 100 µM (inactive)
[42]
  GI50: > 100 µM (inactive)
[43]
  GI50: > 100 µM (inactive)
[45]
  GI50: > 100 µM (inactive)
[46]
  GI50: > 100 µM (inactive)
[47]
  GI50: > 100 µM
[48]
  GI50: > 100 µM (inactive)
[49]
  GI50: > 100 µM (inactive)
[50]
  GI50: > 100 µM (inactive)

## COc1ccc(/C(=N\NC(=O)C(=O)NN)C(c2ccc(OC)cc2)C2(O)C(=O)Nc3ccccc32)cc1 (centres undefined)
[1]
  GI50: 28.1 µM (inactive)
[51]
  GI50: > 100 µM (inactive)
[59]
  GI50: > 100 µM (inactive)
[3]
  GI50: > 100 µM (inactive)
[4]
  GI50: > 100 µM (inactive)
[5]
  GI50: > 100 µM (inactive)
[6]
  GI50: 6.44 µM (inactive)
[7]
  GI50: 55.2 µM (inactive)
[8]
  GI50: > 10 µM (inactive)
[10]
  GI50: > 100 µM (inactive)
[12]
  GI50: 27.6 µM (inactive)
[13]
  GI50: 69.7 µM (inactive)
[14]
  GI50: 22.4 µM (inactive)
[15]
  GI50: 69 µM (inactive)
[52]
  GI50: 48.8 µM (inactive)
[16]
  GI50: 29 µM (inactive)
[19]
  GI50: 53.3 µM (inactive)
[20]
  GI50: 14.5 µM (inactive)
[21]
  GI50: 97.1 µM (inactive)
[22]
  GI50: 46 µM (inactive)
[53]
  GI50: 64.3 µM (inactive)
[23]
  GI50: > 100 µM (inactive)
[54]
  GI50: > 100 µM (inactive)
[24]
  GI50: 29.6 µM (inactive)
[25]
  GI50: 69.7 µM (inactive)
[26]
  GI50: 60.3 µM (inactive)
[27]
  GI50: > 100 µM (inactive)
[28]
  GI50: > 100 µM (inactive)
[29]
  GI50: > 100 µM (inactive)
[30]
  GI50: > 100 µM (inactive)
[55]
  GI50: > 100 µM (inactive)
[31]
  GI50: > 100 µM (inactive)
[56]
  GI50: > 100 µM (inactive)
[32]
  GI50: 89.5 µM (inactive)
[57]
  GI50: > 100 µM (inactive)
[34]
  GI50: 42.7 µM (inactive)
[35]
  GI50: 62.4 µM (inactive)
[36]
  GI50: 94.8 µM (inactive)
[37]
  GI50: 57.8 µM (inactive)
[38]
  GI50: 26.7 µM (inactive)
[40]
  GI50: 80.7 µM (inactive)
[41]
  GI50: 45.3 µM (inactive)
[58]
  GI50: > 100 µM (inactive)
[42]
  GI50: > 100 µM (inactive)
[43]
  GI50: 51.4 µM (inactive)
[45]
  GI50: > 100 µM (inactive)
[46]
  GI50: > 100 µM (inactive)
[47]
  GI50: 94.8 µM
[48]
  GI50: 28.1 µM (inactive)
[49]
  GI50: 82.2 µM (inactive)
[50]
  GI50: > 100 µM (inactive)

## Cc1cc2c3c(coc3c1-c1c(C)cc3c4c(coc14)C(=O)C(O)=C3C(C)C)C(=O)C(O)=C2C(C)C
[1]
  GI50: 10.1 µM (inactive)
[51]
  GI50: 17.9 µM (inactive)
[59]
  GI50: 7.03 µM (inactive)
[2]
  GI50: 3.42 µM (inactive)
[3]
  GI50: 5.45 µM (inactive)
[4]
  GI50: 11.7 µM (inactive)
[5]
  GI50: 4.72 µM (inactive)
[6]
  GI50: 3.66 µM (inactive)
[7]
  GI50: 5.08 µM (inactive)
[8]
  GI50: 3.58 µM (inactive)
[9]
  GI50: 5.37 µM (inactive)
[10]
  GI50: 5.2 µM (inactive)
[11]
  GI50: 5.7 µM (inactive)
[12]
  GI50: 16.6 µM (inactive)
[13]
  GI50: 4.74 µM (inactive)
[14]
  GI50: 15.1 µM (inactive)
[15]
  GI50: 14.5 µM (inactive)
[52]
  GI50: 12.2 µM (inactive)
[16]
  GI50: 3.77 µM (inactive)
[17]
  GI50: 3.68 µM (inactive)
[18]
  GI50: 10.3 µM (inactive)
[19]
  GI50: 4.35 µM (inactive)
[20]
  GI50: 3.94 µM (inactive)
[21]
  GI50: 2.62 µM (inactive)
[53]
  GI50: 2.63 µM (inactive)
[23]
  GI50: 12.8 µM (inactive)
[54]
  GI50: 6.04 µM (inactive)
[24]
  GI50: 4.79 µM (inactive)
[25]
  GI50: 4.68 µM (inactive)
[26]
  GI50: 4.37 µM (inactive)
[27]
  GI50: 10.1 µM (inactive)
[28]
  GI50: 3.99 µM (inactive)
[29]
  GI50: 4.3 µM (inactive)
[30]
  GI50: 19.2 µM (inactive)
[55]
  GI50: 10.9 µM (inactive)
[31]
  GI50: 9.44 µM (inactive)
[56]
  GI50: 10.1 µM (inactive)
[32]
  GI50: 3.53 µM (inactive)
[57]
  GI50: 2.41 µM (inactive)
[34]
  GI50: 15.6 µM (inactive)
[35]
  GI50: 4.05 µM (inactive)
[36]
  GI50: 11.5 µM (inactive)
[37]
  GI50: 10.1 µM (inactive)
[38]
  GI50: 3.26 µM (inactive)
[39]
  GI50: 14.3 µM (inactive)
[40]
  GI50: 3.44 µM (inactive)
[41]
  GI50: 3.73 µM (inactive)
[58]
  GI50: 4 µM (inactive)
[42]
  GI50: 3.66 µM (inactive)
[43]
  GI50: 4.6 µM (inactive)
[44]
  GI50: 6.79 µM (inactive)
[45]
  GI50: 2.28 µM (inactive)
[46]
  GI50: 3.54 µM (inactive)
[47]
  GI50: 3.94 µM
[48]
  GI50: 5.92 µM (inactive)
[49]
  GI50: 3.51 µM (inactive)
[50]
  GI50: 8.71 µM (inactive)
